Measurements taken from ChEMBL document CHEMBL5724914, “Linking interpersonal differences in gut microbiota composition and drug biotransformation activity” (2024).
Also: call rule not given here.

Conditions: human gut metagenome, 24 h, 2 µM
For CC(O)(CS(=O)(=O)c1ccc(F)cc1)C(=O)Nc1ccc(C#N)c(C(F)(F)F)c1 (stereo not drawn) [BICALUTAMIDE], the “Bacterial Biotransformation” value was “Compound NOT metabolized”.
With NC(=O)N1c2ccccc2CC(=O)c2ccccc21 [OXCARBAZEPINE] the “Bacterial Biotransformation” value was “Compound metabolized”.

Test: (§1) The drug is tested on Z-019 corresponding to rat gut metagenome with ENA study accession number: PRJEB37062 and ENA sample accession number: ERS12561818 for biotransformation under anaerobic condition. The drug concentrations were measured over 9 timepoints collected between 0 and 24 hours of incubation by liquid-chromatography-coupled mass spectrometry (LC–MS)
Conditions: 2 µM
In the case of CC(O)(CS(=O)(=O)c1ccc(F)cc1)C(=O)Nc1ccc(C#N)c(C(F)(F)F)c1 (stereo not drawn) [BICALUTAMIDE], the “Bacterial Biotransformation” value was “Compound NOT metabolized”.
With NC(=O)N1c2ccccc2CC(=O)c2ccccc21 [OXCARBAZEPINE] the “Bacterial Biotransformation” value was “Compound NOT metabolized”.

Conditions: human gut metagenome, 24 h, 2 µM
Remark: another data set of the same source
In the case of CC(O)(CS(=O)(=O)c1ccc(F)cc1)C(=O)Nc1ccc(C#N)c(C(F)(F)F)c1 (stereo not drawn) [BICALUTAMIDE], the “Bacterial Biotransformation” value was “Compound NOT metabolized”.
With NC(=O)N1c2ccccc2CC(=O)c2ccccc21 [OXCARBAZEPINE] the “Bacterial Biotransformation” value was “Compound NOT metabolized”.

Test: as §1, with “on WLS-086” for “on Z-019”, “to human” for “to rat”, “number: ERS12561752” for “number: ERS12561818”
Conditions: 2 µM
With CC(O)(CS(=O)(=O)c1ccc(F)cc1)C(=O)Nc1ccc(C#N)c(C(F)(F)F)c1 (stereo not drawn) [BICALUTAMIDE] the “Bacterial Biotransformation” value was “Compound NOT metabolized”.
With NC(=O)N1c2ccccc2CC(=O)c2ccccc21 [OXCARBAZEPINE] the “Bacterial Biotransformation” value was “Compound NOT metabolized”.

Conditions: human gut metagenome, 24 h, 2 µM
Remark: another data set of the same source
With CC(O)(CS(=O)(=O)c1ccc(F)cc1)C(=O)Nc1ccc(C#N)c(C(F)(F)F)c1 (stereo not drawn) [BICALUTAMIDE] the “Bacterial Biotransformation” value was “Compound NOT metabolized”.
With NC(=O)N1c2ccccc2CC(=O)c2ccccc21 [OXCARBAZEPINE] the “Bacterial Biotransformation” value was “Compound NOT metabolized”.

Test: as §1, with “on WLS-310” for “on Z-019”, “to human” for “to rat”, “number: ERS12561785” for “number: ERS12561818”
Conditions: 2 µM
With CC(O)(CS(=O)(=O)c1ccc(F)cc1)C(=O)Nc1ccc(C#N)c(C(F)(F)F)c1 (stereo not drawn) [BICALUTAMIDE] the “Bacterial Biotransformation” value was “Compound NOT metabolized”.
In the case of NC(=O)N1c2ccccc2CC(=O)c2ccccc21 [OXCARBAZEPINE], the “Bacterial Biotransformation” value was “Compound NOT metabolized”.

Conditions: human gut metagenome, 24 h, 2 µM
Remark: another data set of the same source
For CC(O)(CS(=O)(=O)c1ccc(F)cc1)C(=O)Nc1ccc(C#N)c(C(F)(F)F)c1 (stereo not drawn) [BICALUTAMIDE], the “Bacterial Biotransformation” value was “Compound NOT metabolized”.
For NC(=O)N1c2ccccc2CC(=O)c2ccccc21 [OXCARBAZEPINE], the “Bacterial Biotransformation” value was “Compound NOT metabolized”.

Conditions: human gut metagenome, 24 h, 2 µM
Remark: another data set of the same source
With CC(O)(CS(=O)(=O)c1ccc(F)cc1)C(=O)Nc1ccc(C#N)c(C(F)(F)F)c1 (stereo not drawn) [BICALUTAMIDE] the “Bacterial Biotransformation” value was “Compound NOT metabolized”.
For NC(=O)N1c2ccccc2CC(=O)c2ccccc21 [OXCARBAZEPINE], the “Bacterial Biotransformation” value was “Compound NOT metabolized”.

Conditions: human gut metagenome, 24 h, 2 µM
Remark: another data set of the same source
In the case of CC(O)(CS(=O)(=O)c1ccc(F)cc1)C(=O)Nc1ccc(C#N)c(C(F)(F)F)c1 (stereo not drawn) [BICALUTAMIDE], the “Bacterial Biotransformation” value was “Compound NOT metabolized”.
For NC(=O)N1c2ccccc2CC(=O)c2ccccc21 [OXCARBAZEPINE], the “Bacterial Biotransformation” value was “Compound NOT metabolized”.

Test: as §1, with “Z-014” for “Z-019”, “ERS12561814” for “ERS12561818”
Conditions: 2 µM
In the case of CC(O)(CS(=O)(=O)c1ccc(F)cc1)C(=O)Nc1ccc(C#N)c(C(F)(F)F)c1 (stereo not drawn) [BICALUTAMIDE], the “Bacterial Biotransformation” value was “Compound NOT metabolized”.
For NC(=O)N1c2ccccc2CC(=O)c2ccccc21 [OXCARBAZEPINE], the “Bacterial Biotransformation” value was “Compound NOT metabolized”.

Conditions: human gut metagenome, 24 h, 2 µM
Remark: another data set of the same source
For CC(O)(CS(=O)(=O)c1ccc(F)cc1)C(=O)Nc1ccc(C#N)c(C(F)(F)F)c1 (stereo not drawn) [BICALUTAMIDE], the “Bacterial Biotransformation” value was “Compound NOT metabolized”.
In the case of NC(=O)N1c2ccccc2CC(=O)c2ccccc21 [OXCARBAZEPINE], the “Bacterial Biotransformation” value was “Compound NOT metabolized”.

Test: as §1, with “on Z-016” for “on Z-019”, “to mouse” for “to rat”, “number: ERS12561815” for “number: ERS12561818”
Conditions: 2 µM
For CC(O)(CS(=O)(=O)c1ccc(F)cc1)C(=O)Nc1ccc(C#N)c(C(F)(F)F)c1 (stereo not drawn) [BICALUTAMIDE], the “Bacterial Biotransformation” value was “Compound NOT metabolized”.
In the case of NC(=O)N1c2ccccc2CC(=O)c2ccccc21 [OXCARBAZEPINE], the “Bacterial Biotransformation” value was “Compound NOT metabolized”.

Test: as §1, with “on Z-017” for “on Z-019”, “to mouse” for “to rat”, “number: ERS12561816” for “number: ERS12561818”
Conditions: 2 µM
For CC(O)(CS(=O)(=O)c1ccc(F)cc1)C(=O)Nc1ccc(C#N)c(C(F)(F)F)c1 (stereo not drawn) [BICALUTAMIDE], the “Bacterial Biotransformation” value was “Compound NOT metabolized”.
For NC(=O)N1c2ccccc2CC(=O)c2ccccc21 [OXCARBAZEPINE], the “Bacterial Biotransformation” value was “Compound NOT metabolized”.

Test: as §1, with “on WLS-220” for “on Z-019”, “to human” for “to rat”, “number: ERS12561769” for “number: ERS12561818”
Conditions: 2 µM
In the case of CC(O)(CS(=O)(=O)c1ccc(F)cc1)C(=O)Nc1ccc(C#N)c(C(F)(F)F)c1 (stereo not drawn) [BICALUTAMIDE], the “Bacterial Biotransformation” value was “Compound NOT metabolized”.
With NC(=O)N1c2ccccc2CC(=O)c2ccccc21 [OXCARBAZEPINE] the “Bacterial Biotransformation” value was “Compound NOT metabolized”.

Test: as §1, with “on Z-013” for “on Z-019”, “to rabbit” for “to rat”, “number: ERS12561813” for “number: ERS12561818”
Conditions: 2 µM
In the case of CC(O)(CS(=O)(=O)c1ccc(F)cc1)C(=O)Nc1ccc(C#N)c(C(F)(F)F)c1 (stereo not drawn) [BICALUTAMIDE], the “Bacterial Biotransformation” value was “Compound NOT metabolized”.
For NC(=O)N1c2ccccc2CC(=O)c2ccccc21 [OXCARBAZEPINE], the “Bacterial Biotransformation” value was “Compound NOT metabolized”.

Test: as §1, with “on WLS-073” for “on Z-019”, “to human” for “to rat”, “number: ERS12561749” for “number: ERS12561818”
Conditions: 2 µM
In the case of NC(=O)N1c2ccccc2CC(=O)c2ccccc21 [OXCARBAZEPINE], the “Bacterial Biotransformation” value was “Compound NOT metabolized”.

Conditions: human gut metagenome, 24 h, 2 µM
Remark: another data set of the same source
With CC(O)(CS(=O)(=O)c1ccc(F)cc1)C(=O)Nc1ccc(C#N)c(C(F)(F)F)c1 (stereo not drawn) [BICALUTAMIDE] the “Bacterial Biotransformation” value was “Compound NOT metabolized”.
With NC(=O)N1c2ccccc2CC(=O)c2ccccc21 [OXCARBAZEPINE] the “Bacterial Biotransformation” value was “Compound metabolized”.

Test: as §1, with “on WLS-007” for “on Z-019”, “to human” for “to rat”, “number: ERS12561742” for “number: ERS12561818”
Conditions: 2 µM
For CC(O)(CS(=O)(=O)c1ccc(F)cc1)C(=O)Nc1ccc(C#N)c(C(F)(F)F)c1 (stereo not drawn) [BICALUTAMIDE], the “Bacterial Biotransformation” value was “Compound NOT metabolized”.

Test: as §1, with “on WLS-038” for “on Z-019”, “to human” for “to rat”, “number: ERS12561745” for “number: ERS12561818”
Conditions: 2 µM
In the case of CC(O)(CS(=O)(=O)c1ccc(F)cc1)C(=O)Nc1ccc(C#N)c(C(F)(F)F)c1 (stereo not drawn) [BICALUTAMIDE], the “Bacterial Biotransformation” value was “Compound NOT metabolized”.
For NC(=O)N1c2ccccc2CC(=O)c2ccccc21 [OXCARBAZEPINE], the “Bacterial Biotransformation” value was “Compound NOT metabolized”.

Test: as §1, with “Z-008” for “Z-019”, “to” for “to rat gut”, “ERS12561808” for “ERS12561818”
Conditions: 2 µM
With CC(O)(CS(=O)(=O)c1ccc(F)cc1)C(=O)Nc1ccc(C#N)c(C(F)(F)F)c1 (stereo not drawn) [BICALUTAMIDE] the “Bacterial Biotransformation” value was “Compound NOT metabolized”.
In the case of NC(=O)N1c2ccccc2CC(=O)c2ccccc21 [OXCARBAZEPINE], the “Bacterial Biotransformation” value was “Compound NOT metabolized”.
